Our source for the bioavailability values is ChEMBL document CHEMBL1933025, “Discovery and optimization of thieno[2,3-d]pyrimidines as B-Raf inhibitors” (Bioorg Med Chem Lett, 2012).

A short description of the series: Oral bioavailability in CD IGS rat at 10 mg/kg measured after 26 hrs. The conditions noted are these: in vivo. In kind it is ADME, organism-based.

For the compound `NC(=O)c1sc2ncnc(-c3cccc(NC(=O)Nc4ccc(C(F)(F)F)cc4)c3)c2c1N`, the bioavailability is 0.3%. The compound `COc1cncc(-c2nc(NC(C)(C)CO)nc3sc(C(N)=O)c(N)c23)c1` gave a bioavailability of 17%.

What is called bioavailability is dose-corrected exposure relative to a reference, in per cent. Read a high bioavailability as much systemic uptake.
